Measured values taken from US9636409B2, “Enzyme and receptor modulation using covalent conjugates of alpha,alpha-disubstituted glycine esters” (GlaxoSmithKline Intellectual Property Development Limited, priority 2008, dated 2017).
Where two headings read alike, the source gives them in different places.

Key:
[1] = test system: phosphorylation of MAPKAP-2 in HUT 78 cells; test: p38 MAP Kinase cellular assay: inhibition of phosphorylation of MAPKAP2 in HUT 78 cells; assay type: cell-based; conditions: for IC50: Homo sapiens, HuT78, HUT 78 non-monocyte cell line; for Ratio IC50s in HUT 78 to U937 cells: MAPKAP-2 phosphorylation IC50s
Protocol: (§1) p38 MAP Kinase Cellular Assay: Inhibition of Phosphorylation of MAPKAP2
(§2) U937 or HUT78 cells were plated in RPMI 1640, and were incubated at 37° C., 5% CO2 for 18 hours. 10 mM stocks of compounds were diluted media/0.1% DMSO to give a log or semi-log dilution series. The wells for ‘no treatment’ and ‘anisomycin’ were treated with 0.1% DMSO only. The cells were incubated at 37° C., 5% CO2 for a further 4 hours. Anisomycin was added to all wells except ‘no treatment’ at a final concentration of 10 μM. The cells were incubated at 37° C., 5% CO2 for 30 minutes before harvest. Plates were stood on ice whilst harvesting, and all following steps were carried out at 4° C. The cells were pelleted at 1000 rpm for 10 minutes at 4° C., the media aspirated, and the pellet washed with cold PBS. The pellets were lysed in 120 μl of SDS lysis buffer (62.5 mM Tris, pH 6.8, 2% SDS, 10% glycerol, 50 mM DTT, with protease inhibitors and phosphatase inhibitors added according to the manufacturers' recommendations). After 30 minutes on ice, the samples were sonicated for 5 seconds before centrifugation at 13,000 rpm 4° C. for 10 minutes to remove cell debris. 10 μl of the resulting gel samples were loaded per lane on NOVEX 4-12% Bis-Tris MOPS gels. Membranes from western transfer of gels were blotted with anti-phospho MAPKAP2, anti-phospho HSP27 and anti GAPDH according to the manufacturers' Instructions. Signal was visualised using HRP-Hnked anti-rabbit or anti-mouse antibodies, ECL reagent and ECL film. IC50 values for the various compounds were visualised from the resulting photographic images, using both band-shift and signal intensity.

[2] = target: T1, p38 MAP Kinase α (Homo sapiens, UniProt Q16539); test: p38 MAP Kinase enzyme assay; assay type: biochemical; conditions: Table 1 (biology); compound as such, Ester for Example 1; read-out: Inhibition of P38 (IC50 nM)
T1 construct: purchased Upstate (Dundee UK)
T1 sequence (Q16539 whole entry): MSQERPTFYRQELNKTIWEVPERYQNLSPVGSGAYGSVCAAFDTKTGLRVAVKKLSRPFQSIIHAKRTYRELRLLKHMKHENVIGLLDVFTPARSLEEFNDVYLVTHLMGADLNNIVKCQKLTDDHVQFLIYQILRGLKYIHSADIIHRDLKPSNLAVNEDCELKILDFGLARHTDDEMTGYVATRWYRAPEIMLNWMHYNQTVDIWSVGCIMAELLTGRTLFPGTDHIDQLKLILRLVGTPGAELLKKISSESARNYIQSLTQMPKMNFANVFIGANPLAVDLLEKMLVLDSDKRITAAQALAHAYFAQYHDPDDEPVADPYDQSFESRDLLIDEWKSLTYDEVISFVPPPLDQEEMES
Protocol: p38 MAP Kinase Enzyme Assay
The ability of compounds to inhibit p38 MAPα Kinase activity was measured in an assay performed by Upstate (Dundee UK). In a final reaction volume of 25 μL, p38 MAP Kinase α (5-10 mU) is incubated with 25 mM Tris pH 7.5, 0.02 mM EGTA, 0.33 mg/mL myelin basic protein, 10 mM MgAcetate and [γ-^33P-ATP](specific activity approx. 500 cpm/pmol, concentration as required). The reaction is initiated by the addition of the MgATP mix. After incubation for 40 minutes at room temperature, the reaction is stopped by the addition of 5 μL of a 3% phosphoric acid solution. 10 μL of the reaction is then spotted onto a P30 filtermat and washed three times for 5 minutes in 75 mM phosphoric acid and once in methanol prior to drying and scintillation counting.
Duplicate data points are generated from a 1/3 log dilution series of a stock solution in DMSO. Nine dilutions steps are made from a top concentration of […], and a ‘no compound’ blank is included. The standard radiometric filter-binding assay is performed at an ATP concentration at, or close to, the Km. Data from scintillation counts are collected and subjected to free-fit analysis by Prism software. From the curve generated, the concentration giving 50% inhibition is determined and reported.

[3] = test system: phosphorylation of MAPKAP-2 in U937 cells; test: p38 MAP Kinase cellular assay: inhibition of phosphorylation of MAPKAP2 in U937 cells; assay type: cell-based; conditions: for IC50: Homo sapiens, U-937; for potency in monocytic versus non monocytic cell lines (MAPKAP-2 phosphorylation): U937 versus HUT 78
Protocol: as §1, §2

[4] = target: histone deacetylase activity (HeLa nuclear extract); test: Histone deacetylase activity (Fluor de Lys, HeLa nuclear extract); assay type: biochemical; conditions: read-out: Inhibition of HDAC (IC50 nM)
Protocol: Histone Deacetylase Activity
The ability of compounds to inhibit histone deacetylase activities was measured using the commercially available HDAC fluorescent activity assay from Biomol. In brief, the Fluor de Lys™ substrate, a lysine with an epsilon-amino acetylation, is incubated with the source of histone deacetylase activity (HeLa nuclear extract) in the presence or absence of inhibitor. Deacetylation of the substrate sensitises the substrate to Fluor de Lys™ developer, which generates a fluorophore. Thus, incubation of the substrate with a source of HDAC activity results in an increase in signal that is diminished in the presence of an HDAC inhibitor.
Data are expressed as a percentage of the control, measured in the absence of inhibitor, with background signal being subtracted from all samples, as follows: % activity=[(S^i−B)/(S^o−B)]×100 where S^i is the signal in the presence of substrate, enzyme and Inhibitor, S^o is the signal in the presence of substrate, enzyme and the vehicle in which the inhibitor is dissolved, and B is the background signal measured in the absence of enzyme.
IC50 values were determined by non-linear regression analysis, after fitting the results of eight data points to the equation for sigmoidal dose response with variable slope (% activity against log concentration of Compound), using Graphpad Prism software.
Histone deacetylase activity from crude nuclear extract derived from HeLa cells was used for screening. The preparation, purchased from 4C (Seneffe, Belgium), was prepared from HeLa cells harvested whilst in exponential growth phase. The nuclear extract was prepared according to the methodology described by J. D. Dignam, Nucl. Acid. Res., 1983, 11, 1475-1489, snap frozen in liquid nitrogen and stored at −80° C. The final buffer composition was 20 mM Hepes, 100 mM KCl, 0.2 mM EDTA, 0.5 mM DTT, 0.2 mM PMSF and 20% (v/v) glycerol.

[5] = test system: HUT 78 cells; test: HUT cell inhibition assay (WST-1 proliferation); assay type: cell-based; conditions: Table 5
Protocol: (§3) U937 and HUT Cell Inhibition Assay
(§4) Cancer cell lines (U937 and HUT) growing in log phase were harvested and seeded at 1000-2000 cells/well (100 μl final volume) into 96-well tissue culture plates. Following 24 hours of growth cells were treated with compound. Plates were then re-Incubated for a further 72-96 hours before a WST-1 cell viability assay was conducted according to the suppliers (Roche Applied Science) instructions.
(§5) Data were expressed as a percentage inhibition of the control, measured in the absence of Inhibitor, as follows: % inhibition=100−[(S^i/S^o)×100] where S^i is the signal in the presence of Inhibitor and S^o s the signal in the presence of DMSO.
(§6) Dose response curves were generated from 8 concentrations (top final concentration 10 μM, with 3-fold dilutions), using 6 replicates.
(§7) IC50 values were determined by non-linear regression analysis, after fitting the results to the equation for sigmoidal dose response with variable slope (% activity against log concentration of compound), using Graphpad Prism software.

[6] = test system: U937 cells; test: U937 cell inhibition assay (WST-1 proliferation); assay type: cell-based; conditions: for IC50: Homo sapiens, U-937
Protocol: as §3, §4, §5, §6, §7

[7] = Table 2, U937 monocyte cell line, read-out: Inhibition of phosphorylation of MAPKAP-2 in U937 cells (IC50, nM) (monocyte cell line)

Structure (SMILES): Nc1c(C(=O)c2ccc(F)cc2F)ccc(=O)n1-c1ccccc1 [Compound I, reference compound]
- IC50 ([1]; Table 2): 450 nM
- Ratio IC50s in HUT 78 to U937 cells ([1]; Table 2): 1.5
- IC50 [2]: 50 nM
- IC50 ([3]; Table 1 (biology), U937 cells, read-out: Inhibition of phosphorylation of MAPKAP-2 in U937 cells (IC50)): 300 nM
- IC50 [3, 7]: 300 nM
- Ratio cell IC50s to enzyme IC50 ([3]; U937 MAPKAP-2 IC50 to P38 enzyme IC50): 6
- potency in monocytic versus non monocytic cell lines (MAPKAP-2 phosphorylation) [3]: equipotent

Structure (SMILES): CC(N)(CCCOc1cc(F)c(-n2c(N)c(C(=O)c3ccc(F)cc3F)ccc2=O)c(F)c1)C(=O)OC1CCCC1 (centres unmarked) [Example 5]
- IC50 ([1]; Table 3): 100 nM
- Ratio IC50s in HUT 78 to U937 cells ([1]; Table 3): 20
- IC50 ([3]; Table 3, U937 monocyte cell line, read-out: Inhibition of phosphorylation of MAPKAP-2 in U937 cells (IC50, nM) (monocyte cell line)): 5 nM
- macrophage selectivity (MAPKAP-2 phosphorylation, U937 versus HUT 78) ([3]; result in words): macrophage selective

Structure (SMILES): Nc1c(C(=O)c2ccc(F)cc2F)ccc(=O)n1-c1ccc(CCNC2(C(=O)OC3CCCC3)CCCC2)cc1 [Example 3]
- IC50 ([1]; Table 2): 10000 nM
- Ratio IC50s in HUT 78 to U937 cells ([1]; Table 2): 100
- IC50 [3, 7]: 100 nM
- potency in monocytic versus non monocytic cell lines (MAPKAP-2 phosphorylation) [3]: 100 times

Structure (SMILES): CC(C)CC(C)(NCc1ccc(CCC(=O)NO)cc1)C(=O)OC1CCCC1 (racemic) [Example 9, Cyclopentyl N-{4-[3-(hydroxyamino)-3-oxopropyl]benzyl}-2-methyl-D,L-leucinate]
- IC50 ([4]; Table 4, Acid = carboxylic acid hydrolysis product of the ester): 6240 nM
- IC50 ([4]; Table 4, compound as such, Ester for Examples 7 and 9): 4900 nM
- IC50 ([4]; Table 5, Acid = carboxylic acid hydrolysis product of the ester): 6240 nM
- IC50 ([4]; Table 5, compound as such, Ester for Examples 7 and 9): 4900 nM
- IC50 ([5]; Homo sapiens, HuT78, HUT 78 cells): 5500 nM
- Ratio IC50s in HUT 78 to U937 cells ([5]; proliferation IC50s): 30
- IC50 ([6]; Table 4, head prints no unit, same values in Table 5 as IC50 nM, read-out: Inhibition of proliferation in U937 cells): 190 nM
- IC50 ([6]; Table 5, U937 cells, read-out: Inhibition of proliferation in U937 cells (IC50 nM)): 190 nM
- Ratio cell IC50s to enzyme IC50 ([6]; Table 4, U937 proliferation IC50 to HDAC enzyme IC50): 0.04
- potency in monocytic (U937) versus non monocytic (Hut78) cell lines (proliferation) ([6]; U937 versus Hut78): 30 times
- potency in the cellular (U937 proliferation) assay compared with the parent compound ([6]; versus Compound IV): significantly more potent than the parent compound
